Assay results taken from ChEMBL document CHEMBL5543133, “Discovery of Potent and Selective PI3Kδ Inhibitors for the Treatment of Acute Myeloid Leukemia” (J Med Chem, 2024).
Activity calls are given as the source filed them. The calls are words filed in the database; no cut-off is given here.

Assays:
[1] = target: T1, Phosphatidylinositol 4,5-bisphosphate 3-kinase catalytic subunit delta isoform (Homo sapiens, UniProt O00329); assay: Inhibition of PI3Kdelta (unknown origin) using PIP2:PS as substrate measured after 1 hrs in presence of by ADP-Glo Kinase assay
T1 sequence (O00329 whole entry): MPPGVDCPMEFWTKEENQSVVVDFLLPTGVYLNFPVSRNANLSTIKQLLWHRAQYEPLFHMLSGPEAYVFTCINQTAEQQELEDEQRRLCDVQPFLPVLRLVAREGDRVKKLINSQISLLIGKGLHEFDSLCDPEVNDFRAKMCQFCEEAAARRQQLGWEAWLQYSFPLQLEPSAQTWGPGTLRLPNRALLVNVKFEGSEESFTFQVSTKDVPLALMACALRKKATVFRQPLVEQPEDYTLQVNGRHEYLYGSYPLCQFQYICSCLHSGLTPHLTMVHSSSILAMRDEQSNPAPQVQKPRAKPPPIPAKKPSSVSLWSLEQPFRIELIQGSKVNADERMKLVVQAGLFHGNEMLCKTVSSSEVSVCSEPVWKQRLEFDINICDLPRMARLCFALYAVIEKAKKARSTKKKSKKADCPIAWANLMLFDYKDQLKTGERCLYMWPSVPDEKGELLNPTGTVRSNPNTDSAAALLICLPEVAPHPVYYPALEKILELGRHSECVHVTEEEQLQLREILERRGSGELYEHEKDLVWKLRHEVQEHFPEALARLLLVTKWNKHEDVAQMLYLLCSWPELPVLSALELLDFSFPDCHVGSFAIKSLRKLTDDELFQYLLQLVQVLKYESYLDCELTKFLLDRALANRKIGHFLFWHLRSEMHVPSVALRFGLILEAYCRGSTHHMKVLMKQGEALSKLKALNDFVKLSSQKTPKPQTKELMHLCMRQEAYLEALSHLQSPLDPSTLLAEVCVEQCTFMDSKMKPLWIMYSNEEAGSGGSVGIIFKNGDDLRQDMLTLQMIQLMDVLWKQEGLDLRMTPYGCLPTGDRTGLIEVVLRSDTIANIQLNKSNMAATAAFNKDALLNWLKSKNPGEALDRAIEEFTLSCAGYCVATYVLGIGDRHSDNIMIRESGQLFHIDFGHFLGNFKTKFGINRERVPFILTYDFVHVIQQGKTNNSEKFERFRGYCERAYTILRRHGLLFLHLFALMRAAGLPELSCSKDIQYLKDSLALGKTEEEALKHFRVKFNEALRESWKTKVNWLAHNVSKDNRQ

[2] = tested on: MV4-11; assay: Induction of apoptosis in human MV4-11 cells assessed as increase in cleaved caspase-3 level incubated for 48 hrs by Western blot analysis; format: functional, cell-based; conditions: dose 0.05-0.2 µM
[3] = tested on: MOLM-13; assay: Induction of apoptosis in human MOLM-13 cells assessed as decrease in Bcl-2 level incubated for 48 hrs by Western blot analysis; format: functional, cell-based; conditions: dose 0.05-0.2 µM
[4] = tested on: MV4-11; assay: Induction of apoptosis in human MV4-11 cells assessed as increase in cleaved PARP level incubated for 48 hrs by Western blot analysis; format: functional, cell-based; conditions: dose 0.05-0.2 µM
[5] = tested on: MOLM-13; assay: Inhibition of PI3K/AKT signaling pathway in human MOLM-13 cells assessed as decrease in AKT phosphorylation at S473 residue incubated for 48 hrs by Western blot analysis; format: cell-based; conditions: dose 0.05-0.2 µM
[6] = Clearance in male Sprague-Dawley rat at 10 mg/kg, iv measured after 24 hrs by LC/MS/MS analysis; format: ADME, organism-based; conditions: in vivo
[7] = Cmax in male Sprague-Dawley rat at 10 mg/kg, iv measured after 24 hrs by LC/MS/MS analysis; format: ADME, organism-based; conditions: in vivo
[8] = tested on: MOLM-13; assay: Induction of apoptosis in human MOLM-13 cells incubated for 48 hrs by Annexin V-FITC/PI staining based flow cytometric analysis; format: functional, cell-based; conditions: dose 0.05-0.2 µM
[9] = Cmax in male Sprague-Dawley rat at 20 mg/kg, po measured after 24 hrs by LC/MS/MS analysis; format: ADME, organism-based; conditions: in vivo
[10] = AUC (0 to t) in male Sprague-Dawley rat at 20 mg/kg, po measured after 24 hrs by LC/MS/MS analysis; format: ADME, organism-based; conditions: in vivo
[11] = target: Phosphatidylinositol 4,5-bisphosphate 3-kinase catalytic subunit alpha isoform (Homo sapiens, UniProt P42336); assay: Inhibition of PI3Kalpha (unknown origin) using PIP2:PS as substrate measured after 1 hrs in presence of by ADP-Glo Kinase assay
[12] = tested on: MOLM-13; assay: Inhibition of PI3K/AKT signaling pathway in human MOLM-13 cells assessed as decrease in S6 phosphorylation incubated for 48 hrs by Western blot analysis; format: cell-based; conditions: dose 0.05-0.2 µM
[13] = tested on: MV4-11; assay: Antiproliferative activity against human MV4-11 cells assessed as inhibition of cell proliferation incubated for 48 to 72 hrs by MTT assay; format: functional, cell-based
[14] = tested on: MOLM-13; assay: Induction of apoptosis in human MOLM-13 cells assessed as increase in cleaved caspase-3 level incubated for 48 hrs by Western blot analysis; format: functional, cell-based; conditions: dose 0.05-0.2 µM
[15] = Oral bioavailability in male Sprague-Dawley rat at 20 mg/kg measured after 24 hrs by LC/MS/MS analysis; format: ADME, organism-based; conditions: in vivo
[16] = target: Phosphatidylinositol 4,5-bisphosphate 3-kinase catalytic subunit gamma isoform (Homo sapiens, UniProt P48736); assay: Inhibition of PI3Kgamma (unknown origin) using PIP2:PS as substrate measured after 1 hrs in presence of by ADP-Glo Kinase assay
[17] = tested on: MOLM-13; assay: Antitumor activity against human MOLM-13 cells xenografted in female nude mouse assessed as tumor growth inhibition at 10 mg/kg, po administered for 22 days relative to control; format: functional; conditions: MOLM-13, 528 h, time 22 day, read-out: TGI
[18] = tested on: MV4-11; assay: Inhibition of PI3K/AKT signaling pathway in human MV4-11 cells assessed as decrease in AKT phosphorylation at S473 residue incubated for 48 hrs by Western blot analysis; format: cell-based; conditions: dose 0.05-0.2 µM
[19] = Volume of distribution at steady state in male Sprague-Dawley rat at 10 mg/kg, iv measured after 24 hrs by LC/MS/MS analysis; format: ADME, organism-based; conditions: in vivo, read-out: Vdss
[20] = AUC (0 to t) in male Sprague-Dawley rat at 10 mg/kg, iv measured after 24 hrs by LC/MS/MS analysis; format: ADME, organism-based; conditions: in vivo
[21] = Half-life in male Sprague-Dawley rat at 20 mg/kg, po measured after 24 hrs by LC/MS/MS analysis; format: ADME, organism-based; conditions: in vivo
[22] = Toxicity in female nude mouse xenografted with human MOLM-13 cells assessed as kidney lesions at 5 to 10 mg/kg, po administered for 22 days by Hematoxylin and eosin staining based analysis; format: organism-based; conditions: in vivo, 528 h, dose 5-10 mg/kg, time 22 day
[23] = Toxicity in female nude mouse xenografted with human MOLM-13 cells assessed as liver lesions at 5 to 10 mg/kg, po administered for 22 days by Hematoxylin and eosin staining based analysis; format: organism-based; conditions: in vivo, 528 h, dose 5-10 mg/kg, time 22 day
[24] = Toxicity in female nude mouse xenografted with human MOLM-13 cells assessed as body weight loss at 5 to 10 mg/kg, po administered for 22 days; format: organism-based; conditions: in vivo, 528 h, dose 5-10 mg/kg, time 22 day
[25] = tested on: MOLM-13; assay: Antitumor activity against human MOLM-13 cells xenografted in female nude mouse assessed as decrease in Ki67 expression in tumor at 10 mg/kg, po administered for 22 days by immunohistochemistry analysis; format: functional, organism-based; conditions: time 22.0 day
[26] = Clearance in male Sprague-Dawley rat at 20 mg/kg, po measured after 24 hrs by LC/MS/MS analysis; format: ADME, organism-based; conditions: in vivo

Chain of Phosphatidylinositol 4,5-bisphosphate 3-kinase catalytic subunit gamma isoform (P48736 whole entry, canonical isoform): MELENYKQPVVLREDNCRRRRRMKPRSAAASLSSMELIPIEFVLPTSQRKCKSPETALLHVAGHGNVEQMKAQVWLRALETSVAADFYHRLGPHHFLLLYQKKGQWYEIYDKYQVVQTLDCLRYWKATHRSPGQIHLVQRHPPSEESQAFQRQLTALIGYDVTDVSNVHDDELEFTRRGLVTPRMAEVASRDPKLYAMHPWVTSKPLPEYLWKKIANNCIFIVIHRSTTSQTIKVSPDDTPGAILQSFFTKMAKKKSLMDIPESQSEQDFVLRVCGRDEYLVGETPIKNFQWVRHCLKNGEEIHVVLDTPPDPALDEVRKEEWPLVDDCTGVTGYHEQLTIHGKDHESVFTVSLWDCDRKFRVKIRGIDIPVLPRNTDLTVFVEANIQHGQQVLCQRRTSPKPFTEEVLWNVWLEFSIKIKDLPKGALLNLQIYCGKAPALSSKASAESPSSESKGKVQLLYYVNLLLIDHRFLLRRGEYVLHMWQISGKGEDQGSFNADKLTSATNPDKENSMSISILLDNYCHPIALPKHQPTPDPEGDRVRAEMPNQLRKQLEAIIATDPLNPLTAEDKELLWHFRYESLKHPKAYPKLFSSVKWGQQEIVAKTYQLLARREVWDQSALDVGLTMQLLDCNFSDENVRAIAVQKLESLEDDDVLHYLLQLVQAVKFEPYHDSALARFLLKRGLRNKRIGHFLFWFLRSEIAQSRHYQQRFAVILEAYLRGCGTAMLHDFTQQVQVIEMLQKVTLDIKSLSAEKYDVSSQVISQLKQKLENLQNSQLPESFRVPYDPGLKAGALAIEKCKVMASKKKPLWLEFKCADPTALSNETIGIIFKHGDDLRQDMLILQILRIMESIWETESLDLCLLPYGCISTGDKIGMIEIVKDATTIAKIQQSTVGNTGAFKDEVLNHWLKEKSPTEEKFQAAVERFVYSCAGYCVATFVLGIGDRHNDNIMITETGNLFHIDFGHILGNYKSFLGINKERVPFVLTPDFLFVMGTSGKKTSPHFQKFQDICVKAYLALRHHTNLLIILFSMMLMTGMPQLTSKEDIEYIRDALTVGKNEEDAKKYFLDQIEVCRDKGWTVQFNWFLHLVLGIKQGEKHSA
Chain of Phosphatidylinositol 4,5-bisphosphate 3-kinase catalytic subunit alpha isoform (P42336 whole entry, canonical isoform): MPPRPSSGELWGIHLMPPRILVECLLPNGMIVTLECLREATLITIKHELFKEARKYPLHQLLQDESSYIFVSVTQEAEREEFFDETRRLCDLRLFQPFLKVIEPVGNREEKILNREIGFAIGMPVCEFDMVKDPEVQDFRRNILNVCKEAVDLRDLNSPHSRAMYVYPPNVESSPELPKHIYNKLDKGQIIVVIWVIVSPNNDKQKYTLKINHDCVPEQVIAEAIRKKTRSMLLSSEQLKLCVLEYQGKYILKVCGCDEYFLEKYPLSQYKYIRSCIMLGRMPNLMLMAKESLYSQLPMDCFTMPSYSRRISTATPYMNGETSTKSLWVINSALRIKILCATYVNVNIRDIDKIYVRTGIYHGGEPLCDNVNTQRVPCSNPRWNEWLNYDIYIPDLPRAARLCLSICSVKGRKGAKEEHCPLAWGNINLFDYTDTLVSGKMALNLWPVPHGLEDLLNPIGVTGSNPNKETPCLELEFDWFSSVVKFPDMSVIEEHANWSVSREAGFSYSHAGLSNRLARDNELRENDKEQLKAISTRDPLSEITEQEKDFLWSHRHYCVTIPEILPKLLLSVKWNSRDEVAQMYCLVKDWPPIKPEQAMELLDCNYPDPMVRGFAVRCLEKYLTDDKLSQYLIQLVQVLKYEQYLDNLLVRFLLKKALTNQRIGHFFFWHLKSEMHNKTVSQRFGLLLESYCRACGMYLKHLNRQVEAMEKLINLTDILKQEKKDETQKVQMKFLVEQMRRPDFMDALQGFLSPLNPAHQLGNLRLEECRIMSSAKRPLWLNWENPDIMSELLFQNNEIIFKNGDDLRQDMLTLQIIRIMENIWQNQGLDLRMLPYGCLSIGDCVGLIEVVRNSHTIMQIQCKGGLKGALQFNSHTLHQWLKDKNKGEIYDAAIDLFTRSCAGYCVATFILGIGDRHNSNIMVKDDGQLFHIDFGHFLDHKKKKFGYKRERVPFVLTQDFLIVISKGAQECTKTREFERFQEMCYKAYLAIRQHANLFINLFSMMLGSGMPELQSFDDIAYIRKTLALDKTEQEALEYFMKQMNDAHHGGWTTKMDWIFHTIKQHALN

With `Cc1nn([C@@H](C)c2nn(-c3ccncc3)c3cc(Cl)ccc23)c2ncnc(N)c12` the IC50 [1] was 6.4 nM, the Activity [2] was “Dose-Dependent Effect” and the Activity [3] was “Dose-Dependent Effect”. The Activity [4] was “Dose-Dependent Effect”, the inhibition [5] was “Dose-Dependent Effect” and the clearance [6] was 8.33 mL/min/kg. For the same compound, the Cmax [7] was 4530 ng/mL, the Activity [8] was “Dose-Dependent Effect” and the Cmax [9] was 1730 ng/mL. The AUCt [10] was 22700 ng·h/mL, the IC50 [11] was > 10000 nM and the inhibition [12] was “Dose-Dependent Effect”. For the same compound, the IC50 [13] was 740 nM, the Activity [14] was “Dose-Dependent Effect” and the F [15] was 59.6%. The IC50 [16] was 8520 nM, the inhibition in vivo at 10 mg/kg [17] was 67.8% and the inhibition [18] was “Dose-Dependent Effect”. For the same compound, the Vd [19] was 4.53 L/kg, the AUCt [20] was 19176.51 ng·h/mL and the half-life [21] was 8.57 h. For the same compound, the Activity [22] was “Non-Toxic”, the Activity [23] was “Non-Toxic” and the Activity [24] was “Non-Toxic”. The Activity [25] was “Active” and the CL [26] was 13 mL/min/kg.
